In series [1] the test system is influenza (H1N1A/PR/8/34). Briefly: microbe, parasite or virus in culture. In kind it is cell-based.
For series [2], the system named is influenza (H3N1 Memphis 71). The following applies: mouse, in vivo.
The target of series [3] is p38 MAPKα (MAPK14) (Homo sapiens, UniProt Q16539). The series can be described thus: p38α enzyme assay (Z'-LYTE FRET, via MAPKAP-K2 activation). In kind it is biochemical. The following applies: 2 hr pre-incubation, ATP 10 μM.
Series [4] has as its target HCK enzyme (Homo sapiens, UniProt P08631). The series can be described thus: HCK enzyme assay (Z'-LYTE FRET). The series is classed as biochemical. To be noted: 2 hr pre-incubation, ATP 15 μM.
Series [5] concerns the target c-Src enzyme (Homo sapiens, UniProt P12931). Briefly: c-Src enzyme assay (Z'-LYTE FRET). The series is classed as biochemical. To be noted: ATP 200 μM.
Series [6] relates to MDCK cells. Briefly: MTT assay (MDCK cells). In kind it is cell-based, canine. To be noted: final concentration of 10 μg/mL. A general note: Tetrazolium dyes change colour on reduction, which living cells bring about.
Description: The cells were then washed with 10% FCS DMEM, and incubated in 10% FCS DMEM containing 0.25 mg/mL MTT for 2 hr. The media were then removed, 200 μL of DMSO added to each well and the plates were shaken lightly for 1 hr prior to reading the absorbance at 550 nm.
[7] abbreviates: Influenza A virus, MDCK, read-out: IC50 (nM) Influenza-Induced CPE.
Where [8] appears, read: Influenza A virus; MDCK cells, H1N1 A/PR/8/34, MOI 0.1; non-linear regression; read-out: IC50 (nM) Influenza-Induced CPE.
Setting [9] is: MDCK; read-out: IC50 (nM) Influenza-Induced CPE.

Consider 11 compounds from patent US20120244120A1, “INHIBITORS OF HEMOPOIETIC CELL KINASE (P59-HCK) AND THEIR USE IN THE TREATMENT OF INFLUENZA INFECTION” (priority 2009, published 2012).

Marks after values point to notes of the source that are not given here.

Chain of c-Src enzyme (P12931 whole entry): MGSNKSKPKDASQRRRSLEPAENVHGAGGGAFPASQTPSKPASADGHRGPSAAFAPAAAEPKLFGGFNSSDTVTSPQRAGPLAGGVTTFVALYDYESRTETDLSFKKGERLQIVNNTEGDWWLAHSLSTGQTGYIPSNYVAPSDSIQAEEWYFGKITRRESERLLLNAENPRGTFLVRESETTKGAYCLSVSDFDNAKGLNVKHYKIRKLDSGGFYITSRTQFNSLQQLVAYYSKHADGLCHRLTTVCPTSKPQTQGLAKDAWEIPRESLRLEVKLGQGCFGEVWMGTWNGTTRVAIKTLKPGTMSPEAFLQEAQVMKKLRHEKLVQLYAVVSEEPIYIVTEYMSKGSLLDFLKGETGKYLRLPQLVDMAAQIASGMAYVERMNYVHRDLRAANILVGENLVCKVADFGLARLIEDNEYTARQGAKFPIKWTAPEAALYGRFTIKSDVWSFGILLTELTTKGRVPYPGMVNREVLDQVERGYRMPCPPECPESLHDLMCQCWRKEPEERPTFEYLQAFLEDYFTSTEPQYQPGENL
Chain of p38 MAPKα (MAPK14) (Q16539 whole entry): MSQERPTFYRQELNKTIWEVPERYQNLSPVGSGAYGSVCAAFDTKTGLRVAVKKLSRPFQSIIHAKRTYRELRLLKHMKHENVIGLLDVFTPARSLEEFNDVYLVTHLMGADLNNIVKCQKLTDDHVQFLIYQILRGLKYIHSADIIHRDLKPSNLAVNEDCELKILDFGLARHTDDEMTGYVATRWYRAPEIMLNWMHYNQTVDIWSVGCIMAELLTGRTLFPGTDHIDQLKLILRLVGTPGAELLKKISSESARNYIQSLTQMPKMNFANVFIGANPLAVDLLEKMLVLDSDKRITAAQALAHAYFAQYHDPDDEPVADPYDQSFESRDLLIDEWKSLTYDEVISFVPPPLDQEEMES
Chain of HCK enzyme (P08631 22-526): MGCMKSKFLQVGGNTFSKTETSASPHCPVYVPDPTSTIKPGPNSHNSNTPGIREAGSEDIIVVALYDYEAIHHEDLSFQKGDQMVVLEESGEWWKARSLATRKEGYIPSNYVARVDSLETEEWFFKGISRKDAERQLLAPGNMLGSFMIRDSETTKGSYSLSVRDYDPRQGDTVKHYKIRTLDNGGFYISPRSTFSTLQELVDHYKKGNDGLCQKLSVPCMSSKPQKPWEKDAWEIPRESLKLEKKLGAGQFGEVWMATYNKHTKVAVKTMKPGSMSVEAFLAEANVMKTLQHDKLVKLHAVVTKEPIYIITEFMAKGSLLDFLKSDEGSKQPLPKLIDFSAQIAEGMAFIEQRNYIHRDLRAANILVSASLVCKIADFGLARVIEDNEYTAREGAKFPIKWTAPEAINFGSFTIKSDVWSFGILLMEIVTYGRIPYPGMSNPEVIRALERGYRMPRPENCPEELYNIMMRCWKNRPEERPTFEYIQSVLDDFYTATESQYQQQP

One may read the IC50 as the point on the concentration scale where inhibition reaches its midpoint. Turning to `COCC(=O)Nc1cc(COc2ccc(NC(=O)Nc3cc(C(C)(C)C)nn3-c3ccc(C)cc3)c3ccccc23)ccn1` [Example 1, N-(4-((4-(3-(3-tert-Butyl-1-p-tolyl-1H-pyrazol-5-yl)ureido)naphthalen-1-yloxy)methyl)pyridin-2-yl)-2-methoxyacetamide], the IC50 in series [1] (setting [7]) came to 6 nM. In series [2], the Lung viral load is 8.1 ± 1.9 pfu/g lung tissue (×10^6) and the “decrease in viral load versus vehicle controls” value was “approximately 80%”.
Regarding `CNC(=O)Nc1cc(COc2ccc(NC(=O)Nc3cc(C(C)(C)C)nn3-c3ccc(C)cc3)c3ccccc23)ccn1` [Example 2, Methyl 4-((4-(3-(3-tert-butyl-1-p-tolyl-1H-pyrazol-5-yl)ureido)naphthalen-1-yloxy)methyl)pyridin-2-ylurea], the IC50 worked out at 2.8 nM in series [3], 17 nM in series [4], 45 nM in series [5] and 11 nM in series [1] (setting [8]).
As to `COCCNC(=O)CNC(=O)Nc1cc(COc2ccc(NC(=O)Nc3cc(C(C)(C)C)nn3-c3ccc(C)cc3)c3ccccc23)ccn1` [Example 15, 2-(3-(4-((4-(3-(3-tert-Butyl-1-p-tolyl-1H-pyrazol-5-yl)ureido)naphthalen-1-yloxy)methyl)pyridin-2-yl)ureido)-N-(2-methoxyethyl)acetamide], the IC50 in series [4] is 65 nM; in series [5], 28 nM; in series [1] (setting [9]), > 0.2 µg/mL. The “MTT assay 4 hr” value in series [6] (4 hr) was “−ve (<30% = −ve)”. In series [6] (24 hr), the “MTT assay 24 hr” value is given as “−ve (<30% = −ve)”.
For `Cc1ccc(-n2nc(C(C)(C)C)cc2NC(=O)Nc2ccc(OCc3ccnc(NC(=O)CCCN(C)C)c3)c3ccccc23)cc1` [Example 16, N-(4-((4-(3-(3-tert-Butyl-1-p-tolyl-1H-pyrazol-5-yl)ureido)naphthalen-1-yloxy)methyl)pyridin-2-yl)-4-(dimethylamino)butanamide], the IC50 in series [3] worked out at 10.3 nM; in series [4] it was 20 nM; in series [5], 28 nM; in series [1] (setting [8]) it was 166 nM.
The corresponding values for `Cc1ccc(-n2nc(C(C)(C)C)cc2NC(=O)Nc2ccc(OCc3ccnc(NC(=O)CCS(C)(=O)=O)c3)c3ccccc23)cc1` [Example 17, N-(4-((4-(3-(3-tert-Butyl-1-p-tolyl-1H-pyrazol-5-yl)ureido)naphthalen-1-yloxy)methyl)pyridin-2-yl)-3-(methylsulfonyl)propanamide] are 2.7 nM, 60 nM, 149 nM and 64 nM.
For the compound `Cc1ccc(-n2nc(C(C)(C)C)cc2NC(=O)Nc2ccc(OCc3ccnc(NC(=O)C[S+](C)[O-])c3)c3ccccc23)cc1` (stereo not shown) [Example 20, N-(4-((4-(3-(3-tert-Butyl-1-p-tolyl-1H-pyrazol-5-yl)ureido)naphthalen-1-yloxy)methyl)pyridin-2-yl)-2-(methylsulfinyl)acetamide], the IC50 in series [4] worked out at 176 nM; in series [5], 161 nM; in series [1] (setting [7]), 486 nM.
Regarding `Cc1ccc(-n2nc(C(C)(C)C)cc2NC(=O)Nc2ccc(OCc3ccnc(NC(=O)CS(=O)(=O)CCN4CCOCC4)c3)c3ccccc23)cc1` [Example 32, N-(4-((4-(3-(3-tert-Butyl-1-p-tolyl-1H-pyrazol-5-yl)ureido)naphthalen-1-yloxy)methyl)pyridin-2-yl)-2-(2-morpholinoethylsulfonyl)acetamide], the IC50 was 1 nM in series [3], 183 nM in series [4], 111 nM in series [5] and > 0.04 µg/mL in series [1] (setting [9]).
Turning to `CNC(=O)Nc1cnccc1COc1ccc(NC(=O)Nc2cc(C(C)(C)C)nn2-c2ccc(C)cc2)c2ccccc12` [Example 34, 1-(4-((3-Methylureidopyridin-4-yl)methoxy)naphthalen-1-yl)-3-(3-tert-butyl-1-p-tolyl-1H-pyrazol-5-yl)urea], the IC50 in series [4] is 742 nM; in series [5], > 17300 nM; in series [1] (setting [9]) it was > 0.2 µg/mL.
On to `COCCOCC(=O)Nc1cnccc1COc1ccc(NC(=O)Nc2cc(C(C)(C)C)nn2-c2ccc(C)cc2)c2ccccc12` [Example 36, N-(4-((4-(3-(3-tert-Butyl-1-p-tolyl-1H-pyrazol-5-yl)ureido)naphthalen-1-yloxy)methyl)pyridin-3-yl)-2-(2-methoxyethoxy)acetamide], for which the concentration for half-maximal inhibition (IC50) is > 1570 nM in series [4]; 9330 nM in series [5]; > 0.2 µg/mL in series [1] (MDCK, read-out: IC50 (nM) Influenza-Induced CPE).
As for `Cc1ccc(-n2nc(C(C)(C)C)cc2NC(=O)Nc2ccc(OCCc3ccnc(NC(N)=O)c3)c3ccccc23)cc1` [Example 40, 4-(2-(4-(3-(3-tert-Butyl-1-p-tolyl-1H-pyrazol-5-yl)ureido)naphthalen-1-yloxy)ethyl)-3-(pyridin-2-yl)urea], the IC50 in series [4] is 276 nM; in series [5], > 17300 nM; in series [1] (setting [7]), 97 nM.
As for `COCC(=O)Nc1cc(COc2ccc(NC(=O)Nc3cc(C(C)(C)C)nn3-c3ccc(CO)cc3)c3ccccc23)ccn1` [Example 49, N-(4-((4-(3-(3-tert-Butyl-1-(4-(hydroxymethyl)phenyl)-1H-pyrazol-5-yl)ureido)naphthalen-1-yloxy)methyl)pyridin-2-yl)-2-methoxyacetamide], the IC50 in series [3] was determined as 5 nM; in series [4] it was 24 nM; in series [5], 155 nM; in series [1] (setting [8]), 32 nM.
